Assay [1] relates to primary cortical neuron cells. Description: Intracellular calcium concentration in neuronal cells (fluo-4 AM fluorescence imaging). Format: cell-based. As to conditions: CBDA (6.25 μM), THCA (12.5 μM), THC (12.5 μM) with Aβ1-42 (5 μM), 24 hours; compared to Aβ1-42 alone; FIG. 8 and 9. How it is done: Specifically, primary cortical neuron cells were seeded in 96-wells at 5×10^5 cells per well and cultured for 6 days. […] Next, to measure the concentration of calcium ions in neuronal cells by detecting Ca^2+ using fluorescence imaging, the cells were washed with PBS and treated with 10 μM Ca^2+ indicator fluo-4 AM (Thermo) for […]. The stained sections were washed with PBS, covered with Prolong Gold Antifide Reagent (Invitrogen, Carlsbad, CA, USA) including DAPI nuclear stain, and observed using a microscope (Carl Zeiss, Oberkochen, Germany). Fluo-4 AM fluorescence signal intensity was measured using the Image J analysis program (National Institute of Health, Bethesda, […], USA).

The test system of assay [2] is primary neuronal cells. Description: Inhibition of Aβ1-42-induced neuron apoptosis (MTS cell viability). Format: cell-based, ICR mice. Conditions: different concentrations with Aβ1-42 (5 μM), 24 hours; compared to control treated with Aβ1-42 alone; FIG. 2. How it is done:
Specifically, primary neuronal cells derived from ICR mice were seeded in 96-wells at 5×10^5 cells per well and cultured for 6 days. Afterwards, the six compounds of Example 1 above were treated at different concentrations and Aβ1-42 (5 μM) was treated to induce neuron apoptosis, and the cells were treated together for 24 hours. Afterwards, a MTS solution was added to the medium and incubated for 2 hours. Cytotoxicity (cell viability) was measured using a microplate spectrophotometer (Bio-Tek Power Wave XS, Winooski, VT, USA), and absorbance was measured at 490 nm.
Next, the neuron apoptosis inhibition efficacy for the same concentration of CBDA, CBD, THCA and THC was evaluated using the same method as above. Memantine, known as an Alzheimer's treatment, was used as a positive control group.

Assay [3] has as its system phosphorylated tau (p-Tau). The assay is described as follows: Western blotting of Tau/p-Tau in Aβ1-42-treated primary neuronal cells. In kind it is cell-based, ICR mice. Conditions: with Aβ1-42 (5 μM), 24 hours; compared to Aβ1-42 alone; FIG. 7. Here is the method: (§1) To conduct Western blotting, tissues were homogenized in radioimmunoprecipitation assay buffer (Cell Signaling) to acquire tissue lysates. Tissue protein concentrations were determined using the Bio-Rad protein assay (Bio-Rad, Hercules, CA, USA), and Western blot analysis was conducted using 80-120 μg of protein. Next, the Western blotting samples prepared using the proteins were separated using 12% SDS-PAGE and transferred to a polyvinylidene fluoride membrane (PVDF) (Merck Millipore, Burlington, MA, USA; 0.4 μm). The PVDF was blocked with tris-buffered saline including 5% bovine serum albumin and Tween-20, and incubated with primary antibodies overnight at 4° C. After primary antibody incubation, the samples were incubated with HRP-conjugated secondary antibody (Sigma; 1:5000) for 1 hour at room temperature, and immunodetection was conducted using an enhanced chemiluminescence detection kit (GE Healthcare, Chicago, IL, USA).
Specifically, primary neuronal cells derived from ICR mice were cultured for 6 days, and then treated with CBDA, THCA, THC, or CBN compounds while treating with Aβ1-42 (5 μM), and treated together for 24 hours. Next, to confirm the expression levels of Tau and phosphorylated Tau (p-Tau) in the cells, Western blotting was conducted using the method disclosed in Example 4 above.
Background: A western blot detects proteins with antibodies after separation by electrophoresis.

Assay [4] relates to amyloid beta (Aβ). The assay is described as follows: Western blotting of Aβ expression in Aβ1-42-treated primary neuronal cells. Format: cell-based, ICR mice. Conditions: with Aβ1-42 (5 μM), 24 hours; compared to Aβ1-42 alone; FIG. 5. Here is the method: Specifically, primary neuronal cells derived from ICR mice were cultured for 6 days, and then treated with CBDA, THCA, THC, or CBN compounds while treating with Aβ1-42 (5 μM), and treated together for 24 hours. Next, Western blotting was conducted to confirm the expression levels of APP (Amyloid Precursor Protein), polymeric Aβ, and oligomeric AB in the cells.
as §1

The source of these data is patent publication US20260000685A1, “PHARMACEUTICAL COMPOSITION FOR PREVENTING OR TREATING DEGENERATIVE BRAIN DISEASES, COMPRISING CANNABINOIDS AS ACTIVE INGREDIENT, AND USES THEREOF” (NEOCANNBIO CO., LTD., priority 2022, published 2026).

As to `CCCCCc1cc(O)c2c(c1)OC(C)(C)[C@@H]1CCC(C)=C[C@@H]21` [THC, (6aR, 10aR)-delta-9-Tetrahydrocannabinol], the “intracellular calcium ion concentration” value in assay [1] is listed as “significantly reduced”. Further, the “cell survival rate level” value in assay [2] was “significantly increased”. Besides, in assay [3], the “expression level of p-Tau” value is on record as “significantly reduced” and the “phosphorylation level of p-Tau” value is recorded as “significantly reduced”. Further, the “expression level of AB” value in assay [4] is “significantly reduced”.

Consider `CCCCCc1cc(O)c2c(c1)OC(C)(C)c1ccc(C)cc1-2` [CBN, 6,6,9-Trimethyl-3-pentyl-benzo[c]chromen-1-ol], for which the “cell survival rate level” value in assay [2] is recorded as “significantly increased”. For the same molecule, the “phosphorylation level of p-Tau” value in assay [3] was “not”. In addition, in assay [4], the “expression level of AB” value is given as “significantly reduced”.
